Series [1] can be described thus: Compound cytotoxicity in uninfected cells (same assay plate). Type of series: cell-based. Conditions: human, uninfected CEM-SS cells; read-out: Virus Replication CC50. On the procedure: (§1) All samples were tested in duplicate. The HIV-1 virus strain RF was used to infect CEM-SS cells. Compound cytotoxicity was measured in the same assay plate using uninfected cells. Regression analysis was used to estimate the effective concentration (EC50) as well as the cytotoxic concentration (CC50).

Series [2] relates to HIV-1 virus strain RF in CEM-SS cells. Put plainly: HIV-1 cytopathicity assay. Type of series: cell-based. Conditions: for EC50: read-out: Virus Replication EC50; for Virus Replication EC50, protective effect class: tested up to 50 μM. Here is the method: This assay was conducted as previously reported (Weislow, O, S., et al., J. Natl. Cancer Inst., 81(8):577-86 (1989)). Samples were dissolved in DMSO at 10 mM and diluted to a final high concentration of 50 μM in the 96-well assay plate, with 2-fold dilutions made to a low concentration of about 0.78 μM. All samples were tested in duplicate. The HIV-1 virus strain RF was used to infect CEM-SS cells. Compound cytotoxicity was measured in the same assay plate using uninfected cells. Regression analysis was used to estimate the effective concentration (EC50) as well as the cytotoxic concentration (CC50).
For orientation: Cytopathic effects are the visible damage that an infection or toxin causes in cultured cells.

Series [3] concerns the target T1, HIV-1 RNase H (p66/p51 HIV-1 RT) (Human immunodeficiency virus type 1 group M subtype B, UniProt P04585).
T1 construct: RT is a p66/p51 heterodimer comprised of asymmetrically-organized subunits processed from the 165 kDa gag/pol polyprotein precursor; (His)6; made in house; host or cells: Escherichia coli
The series can be described thus: High throughput RNase H assay on sequence-independent RNA/DNA hybrid. Conditions: read-out: In vitro IC50. Type of series: biochemical. On the procedure:
IC50 values were determined as previously reported (Budihas, S. R., et al., Nucleic Acids Res., 33(4):1249-56 (2005)), using an 18-nucleotide 3′-flourescein-labeled RNA annealed to a complementary 18-nucleotide 5′-dabsyl-labeled DNA. […] The reaction was initiated by adding 1 μl of 100 mM MgCl2 to 9 μl of mixture containing 4 ng enzyme, 200 nM substrate, 20 μM α-hydroxytropolones in 50 mM Tris, pH 8.0, 80 mM KCl, 2 mM DTT, and 10% DMSO at 37° C., and quenched with 10 μl of a gel-loading buffer after 10 minutes. Hydrolysis products were fractionated by denaturing polyacrylamide gel electrophoresis and visualized by fluorescent imaging (Typhoon Trio+, GE Healthcare, Piscataway, N.J.). […]

The next series deals with T2, HIV-1 RT RNase H (Human immunodeficiency virus type 1 group M subtype B, UniProt P04585).
T2 construct: RT is a p66/p51 heterodimer comprised of asymmetrically-organized subunits processed from the 165 kDa gag/pol polyprotein precursor; (His)6; made in house; host or cells: Escherichia coli
Put plainly: Cleavage of the HIV-1 polypurine tract (PPT) primer, PPT/U3 junction. Type of series: biochemical. Conditions: 20 μM inhibitor. Here is the method:
FIG. 2A depicts a schematic model of RNA/DNA substrate, indicating the RNase H cleavage site at the PPT/U3 junction (< >). The PPT is indicated by the shaded box. FIG. 2B depicts the quantification of PPT cleavage data. All inhibitors were evaluated at 20 μM.
IC50 values were determined as previously reported (Budihas, S. R., et al., Nucleic Acids Res., 33(4):1249-56 (2005)), using an 18-nucleotide 3′-flourescein-labeled RNA annealed to a complementary 18-nucleotide 5′-dabsyl-labeled DNA. […] The reaction was initiated by adding 1 μl of 100 mM MgCl2 to 9 μl of mixture containing 4 ng enzyme, 200 nM substrate, 20 μM α-hydroxytropolones in 50 mM Tris, pH 8.0, 80 mM KCl, 2 mM DTT, and 10% DMSO at 37° C., and quenched with 10 μl of a gel-loading buffer after 10 minutes. Hydrolysis products were fractionated by denaturing polyacrylamide gel electrophoresis and visualized by fluorescent imaging (Typhoon Trio+, GE Healthcare, Piscataway, N.J.).
Since the high-throughput RNase H assay examines non-specific, “polymerase-independent” RNase H activity defined by the spatial separation of the DNA polymerase and RNase H active site of HIV-1 RT (Gopalakrishnan, V., et al., Proc. Natl. Acad. Sci. USA, 89(22):10763-7 (1992)), an examination of whether α-hydroxytropolones altered cleavage specificity on a more biologically-relevant substrate, namely the polypurine tract (PPT) primer, which must be processed from the RNA/DNA replication intermediate to initiate (+) strand DNA synthesis.

The next series concerns uninfected CEM-SS cells. The series can be described thus: Compound cytotoxicity in uninfected cells (same assay plate). Type of series: cell-based. Conditions: for cytotoxicity (in words): up to a concentration of 50 μM; for CC50: uninfected CEM-SS cells, read-out: Virus Replication CC50. Here is the method:
as §1

The mark [4] stands for this setting: Human immunodeficiency virus 1, CEM-SS, HIV-1 RF.
Setting [5] is: HIV-1 RNase H enzymatic activity, sequence-independent RNA/DNA hybrid.

The record followed here is patent US8993768B2, “Tropolone compounds for treating or preventing retroviral infection” (The United States of America, as represented by the …, priority 2011, dated 2015).

Read-outs that look alike come from different tables or passages of the source.

With `Cc1cc(O)c(=O)c(O)c2c1CC(C(C)(O)CN1CCCCC1)CC2` (mixture of isomers) [Compound 1, 5,7-Dihydroxy-2-(1-hydroxy-1-methyl-2-piperidin-1-yl-ethyl)-9-methyl-1,2,3,4-tetrahydro benzocyclohepten-6-one], in series [1], the CC50 was > 50 µM. Besides, the “protection against the cytopathic effect of the virus (in words)” value (“protection against the cytopathic effect” for short) in series [2] (HIV-1 RF) is “showed protection”. Further, the EC50 in series [2] (setting [4]) is 10.2 µM. Besides, the IC50 in series [3] (setting [5]) was determined as 0.93 µM.
Turning to `CCN(CC)CC(C)(O)C1CCc2c(c(C)cc(O)c(=O)c2O)C1` (mixture of isomers) [Compound 3, 2-(2-Diethylamino-1-hydroxy-1-methyl-ethyl)-5,7-dihydroxy-9-methyl-1,2,3,4-tetrahydrobenzocyclohepten-6-one], the CC50 in series [1] is > 50 µM. Further, at HIV-1 RT RNase H, the “inhibition of PPT/U3 cleavage (in words)” value was “ineffective”. Moreover, in series [2] (HIV-1 RF), the “protection against the cytopathic effect” value is on record as “slight protection” and the “Virus Replication EC50, protective effect class” value (shortened to “Virus Replication EC50”) is <50% (<50%=protective effect less than 50% of control, i.e. weak activity). For the same compound, the concentration for half-maximal inhibition (IC50) in series [3] (setting [5]) stood at 0.49 µM.
On to `Cc1cc(O)c(=O)c(O)c2c1CC(C(C)(O)CNCc1ccccc1F)CC2` (mixture of isomers) [Compound 4, 2-[2-(2-Fluoro-benzylamino)-1-hydroxy-1-methyl-ethyl]-5,7-dihydroxy-9-methyl-1,2,3,4-tetrahydrobenzocyclohepten-6-one], for which the CC50 in series [1] is > 50 µM. Further, in the series with uninfected CEM-SS cells, the “cytotoxicity (in words)” value was “not cytotoxic”. The “inhibition of PPT/U3 cleavage (in words)” value on HIV-1 RT RNase H was “less active”. The “protection against the cytopathic effect” value in series [2] (HIV-1 RF) was “no protection”. Also, in series [3] (setting [5]), the IC50 turned out to be 1.4 µM.
For `CCSCC(C)(O)C1CCc2c(c(C)cc(O)c(=O)c2O)C1` (mixture of isomers) [Compound 6, 2-(2-Ethylthio-1-hydroxy-1-methyl-ethyl)-5,7-dihydroxy-9-methyl-1,2,3,4-tetrahydrobenzocyclohepten-6-one], in series [1], the cytotoxic concentration (CC50) stood at 25.8 µM. Moreover, in series [2] (HIV-1 RF), the “protection against the cytopathic effect” value was “slight protection” and the “Virus Replication EC50” value was <50% (<50%=protective effect less than 50% of control, i.e. weak activity). Moreover, in series [3] (setting [5]), the concentration for half-maximal inhibition (IC50) came out at 0.41 µM.
Take `Cc1cc(O)c(=O)c(O)c2c1CC(C(C)(O)CSc1ccccc1)CC2` (mixture of isomers) [Compound 7, 5,7-Dihydroxy-2-(1-hydroxy-1-methyl-2-phenylthio-ethyl)-9-methyl-1,2,3,4-tetrahydrobenzocyclohepten-6-one]: the half-maximal cytotoxic concentration (CC50) in series [1] was 17.8 µM. Moreover, the “protection against the cytopathic effect” value in series [2] (HIV-1 RF) is “showed protection”. In addition, in series [2] (setting [4]), the concentration giving a half-maximal response (EC50) was found to be 11.5 µM. In addition, the concentration for half-maximal inhibition (IC50) in series [3] (setting [5]) worked out at 0.91 µM.
With `Cc1cc(O)c(=O)c(O)c2c1CC(C(C)(O)CSCc1ccccc1)CC2` (mixture of isomers) [Compound 8, 2-(2-Benzylthio-1-hydroxy-1-methyl-ethyl)-5,7-dihydroxy-9-methyl-1,2,3,4-tetrahydrobenzocyclohepten-6-one], in series [1], the CC50 was found to be 17.4 µM. The “protection against the cytopathic effect” value in series [2] (HIV-1 RF) is “showed protection”. In series [2] (setting [4]), the half-maximal effective concentration (EC50) is ~4.2 µM. In series [3] (setting [5]), the IC50 was found to be 1.3 µM.
`CCS(=O)(=O)CC(C)(O)C1CCc2c(c(C)cc(O)c(=O)c2O)C1` (mixture of isomers) [Compound 9, 2-(2-Ethanesulfonyl-1-hydroxy-1-methyl-ethyl)-5,7-dihydroxy-9-methyl-1,2,3,4-tetrahydrobenzocyclohepten-6-one]: in series [1], the CC50 is 10.4 µM. At HIV-1 RT RNase H (read-out: effectiveness in inhibiting PPT/U3 cleavage), the inhibition at 20 µM was ~100%. Also, in series [2] (HIV-1 RF), the “protection against the cytopathic effect” value is given as “slight protection” and the “Virus Replication EC50” value is recorded as <50% (<50%=protective effect less than 50% of control, i.e. weak activity). Besides, in series [3] (setting [5]), the IC50 was found to be 0.26 µM.
Turning to `Cc1cc(O)c(=O)c(O)c2c1CC(C(C)(O)CS(=O)(=O)c1ccccc1)CC2` (mixture of isomers) [Compound 11, 2-(2-benzenesulfonyl-1-hydroxy-1-methyl-ethyl)-5,7-dihydroxy-9-methyl-1,2,3,4-tetrahydrobenzocyclohepten-6-one], in series [1], the 50% cytotoxic concentration (CC50) was > 50 µM. Moreover, the “inhibition of PPT/U3 cleavage (in words)” value at HIV-1 RT RNase H is given as “ineffective”. For the same compound, in series [2] (HIV-1 RF), the “protection against the cytopathic effect” value is recorded as “showed protection”. Besides, the EC50 in series [2] (setting [4]) stood at 21.2 µM. Besides, the concentration for half-maximal inhibition (IC50) in series [3] (setting [5]) came to 0.59 µM.
Consider `Cc1cc(O)c(=O)c(O)c2c1CC(C(C)(O)CO)CC2` (mixture of isomers) [Compound 12, 2-(1,2-Dihydroxy-1-methyl-ethyl)-5,7-dihydroxy-9-methyl-1,2,3,4-tetrahydrobenzocyclohepten-6-one], for which, in the series with uninfected CEM-SS cells, the CC50 was > 50 µM and the “cytotoxicity (in words)” value is given as “not cytotoxic”. Moreover, the “protection against the cytopathic effect” value in series [2] (HIV-1 RF) is given as “no protection”. In series [3] (setting [5]), the IC50 amounted to 1.9 µM.
For the compound `Cc1cc(O)c(=O)c(O)c2c1CC(C(C)O)CC2` (mixture of isomers) [Compound 13, 5,7-Dihydroxy-2-(1-hydroxy-ethyl)-9-methyl-1,2,3,4-tetrahydrobenzocyclohepten-6-one], in series [1], the half-maximal cytotoxic concentration (CC50) stood at 26.1 µM. In addition, in series [2] (HIV-1 RF), the “protection against the cytopathic effect” value is given as “showed protection”. Besides, in series [2] (setting [4]), the concentration for a half-maximal effect (EC50) was 6.9 µM. In addition, the IC50 in series [3] (setting [5]) came out at 0.75 µM.
With `Cc1cc(O)c(=O)c(O)c2c1CC(C(C)NCc1ccccc1)CC2` (mixture of isomers) [Compound 14, 2-(1-Benzylamino-ethyl)-5,7-Dihydroxy-9-methyl-1,2,3,4-tetrahydrobenzocyclohepten-6-one], in series [1], the cytotoxic concentration (CC50) came to 16.7 µM. The “inhibition of PPT/U3 cleavage (in words)” value at HIV-1 RT RNase H is recorded as “less active”. Also, the “protection against the cytopathic effect” value in series [2] (HIV-1 RF) is “showed protection”. In series [2] (setting [4]), the EC50 was 10.6 µM. In series [3] (setting [5]), the IC50 was 1.1 µM.
For `Cc1cc(O)c(=O)c(O)c2c1CC(C(C)(O)Cn1ccnc1)CC2` (stereo not drawn) [Compound 2, 5,7-Dihydroxy-2-(1-hydroxy-2-imadazol-1-yl-1-methyl-ethyl)-9-methyl-1,2,3,4-tetrahydro benzocyclohepten-6-one], the cytotoxic concentration (CC50) in series [1] was > 50 µM. Also, the “inhibition of PPT/U3 cleavage (in words)” value at HIV-1 RT RNase H is “less active”. In addition, the “protection against the cytopathic effect” value in series [2] (HIV-1 RF) was “showed protection”. For the same compound, the 50% effective concentration (EC50) in series [2] (Human immunodeficiency virus 1, HIV-1 RF) was found to be 42.1 µM.
With `CC(C)c1ccc(O)c(=O)c(O)c1` [β-Thujaplicinol, reference compound], the CC50 in the series on uninfected CEM-SS cells stood at 2.3 µM. In series [2] (HIV-1 RF), the “protection against the cytopathic effect” value is reported as “no protection” and the 50% effective concentration (EC50) is 2.3 µM. For the same compound, the half-inhibitory concentration (IC50) in series [3] is 0.21 µM.

One may read the CC50 as the concentration at which the toxic effect on the cells reaches its halfway point. As a reminder, the EC50 is the concentration at which the effect is half-maximal. Broadly, the IC50 is the concentration that inhibits the measured activity by half.
